# Earlier results in patent publication EP4699692A1, “ACIDIC GAS ADSORBENT, STRUCTURE COMPRISING ACIDIC GAS ADSORBENT, ACIDIC GAS ADSORPTION DEVICE, AND ACIDIC GAS ADSORBENT PRODUCTION METHOD” (Nitto Denko Corporation, priority 2023, dated 2024).
# Tests used:
# [1] = amine monomer; regulatory class
# [2] = amine monomer
# [3] = amine monomer; regulatory class; remark: listed apart in the source
# [4] = amine monomer; remark: listed apart in the source
compound,measurement,setting,value
"NCCNCCNCCN [TETA, triethylenetetramine]",Fire Service Act,[1],Hazardous material category IV class III petroleums
same,Mutagenicity test (Ames test),[2],Positive
same,Poisonous and Deleterious Substances Control Act,[3],Deleterious substance
same,Skin irritation test (rabbit),[4],Strong irritant
